The record followed here is patent publication US7060697B2, “Immunosuppressant compounds and compositions” (IRM LLC, priority 2003, dated 2006).

The subject of one experiment is blood lymphocytes. The experiment is described as follows: Measurement of circulating lymphocytes (blood lymphocyte depletion). It counts as in vivo, Rats (C57b1/6 male). As to conditions: Rattus norvegicus, oral gavage, blood collected 6 and 24 hours after administration, read-out: ED50 (effective dose required displaying 50% of blood lymphocyte depletion). On the procedure: C. In vivo: Screening Assays for Measurement of Blood Lymphocyte Depletion and Assessment of Heart Effect
Measurement of circulating lymphocytes: Compounds are dissolved in DMSO and diluted to obtain a final concentration of 4% DMSO (v/v, final concentration) and then further diluted in a constant volume of Tween80 25%/H2O, v/v. Tween80 25%/H2O (200 μl), 4% DMSO, and FTY720 (10 μg) are included as negative and positive controls, respectively. Rats (C57b1/6 male, 6–10 week-old) are administered 250–300 μL of compound solution orally by gavages under short isoflurane anesthesia.
Blood is collected from the retro-orbital sinus 6 and 24 hours after drug administration under short isoflurane anesthesia. Whole blood samples are subjected to hematology analysis. Peripheral lymphocyte counts are determined using an automated analyzer. Subpopulations of peripheral blood lymphocytes are stained by fluorochrome-conjugated specific antibodies and analyzed using a fluorescent activating cell sorter (Facscalibur). Two rats are used to assess the lymphocyte depletion activity of each compound screened. The result is an ED50, which is defined as the effective dose required displaying 50% of blood lymphocyte depletion.

The target in a further experiment is T1, human EDG-1 (Homo sapiens, UniProt P21453).
T1 construct: c-myc (N); expressed in transfected cells; homogenized membranes
T1 sequence (P21453 whole entry): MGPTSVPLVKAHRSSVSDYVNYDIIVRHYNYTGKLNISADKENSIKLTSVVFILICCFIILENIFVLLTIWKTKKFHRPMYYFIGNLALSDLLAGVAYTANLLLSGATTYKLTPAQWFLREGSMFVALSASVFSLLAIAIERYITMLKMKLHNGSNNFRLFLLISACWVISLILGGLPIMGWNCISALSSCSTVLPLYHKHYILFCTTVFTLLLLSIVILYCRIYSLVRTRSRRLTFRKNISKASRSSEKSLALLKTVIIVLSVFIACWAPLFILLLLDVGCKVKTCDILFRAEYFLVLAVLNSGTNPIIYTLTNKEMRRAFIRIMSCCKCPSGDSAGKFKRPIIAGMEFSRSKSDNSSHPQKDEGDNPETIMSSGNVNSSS
The experiment is described as follows: GPCR activation assay measuring GTP [γ-35S] binding to membranes from CHO cells expressing human EDG receptors. It counts as biochemical. On the procedure:
A. In vitro: GPCR Activation Assay Measuring GTP [γ-^35S] Binding to Membranes Prepared from CHO Cells Expressing Human EDG Receptors
EDG-1 (S1P1) GTP [γ-^35S] binding assay: Homogenized membranes are prepared from CHO cell clones stably expressing a human EDG-1 N-terminal c-myc tag. Cells are grown in suspension in two 850 cm^2 roller bottles for three or fours days before harvesting. The cells are centrifuged down, washed once with cold PBS, and resuspended in ≦20 ml of Buffer A (20 mM HEPES, pH 7.4, 10 mM EDTA, EDTA-free complete protease inhibitor cocktail [1 tablet/25 ml]). The cell suspension is homogenized on ice, using a Polytron homogenizer at 30000 rpm at three intervals of 15 seconds each. The homogenate is first centrifuged at 2000 rpm on a tabletop low speed centrifuge for 10 minutes. The supernatant, after passing through a cell strainer, is then re-centrifuged at 50,000×g for 25 minutes at 4° C. The pellet is resuspended into buffer B (15% glycerol, 20 mM HEPES, pH 7.4, 0.1 mM EDTA, EDTA-free complete protease inhibitor cocktail [1 tablet/10 ml]). Protein concentration of the prep is determined using the BCA Protein Assay kit (Pierce) using BSA as standard. The membranes are aliquoted and kept frozen at −80° C.
Solutions of test compounds ranging from 10 mM to 0.01 nM are prepared in DMSO. S1P is diluted in 4% BSA solution as positive controls. […]

Bounds are passed on as bounds.

Consider `O=C(O)C1CN(Cc2ccc(SCc3ccc(-c4ccccc4)c(C(F)(F)F)c3)cc2)C1` [Compound 9, 1-[4-(2-trifluoromethyl-biphenyl-4-ylmethylsulfanyl)-benzyl]-azetidine-3-carboxylic acid], for which the ED50 in the experiment on blood lymphocytes is less than 0.1 mg/kg. The same molecule came in with an EC50 on human EDG-1 (EDG-1 (S1P1) GTP [γ-35S] binding, CHO cell membranes) of 0.82 nM. Also, the “selectivity for EDG-1 compared to one or more of the other receptors including EDG-3, EDG-5, EDG-6 and EDG-8” value at human EDG-1 (GTP [γ-35S] binding assays) is given as “at least 1000 fold”.

A word on the ED50: it is the midpoint of the dose-response relation. What is called EC50 is the concentration needed to bring the measured effect to its halfway point.
